Calls of active or inactive are those of the source. No stated cut-off is given here; in the data, actives have a measured IC50 and inactives only a lower limit.

For the assay, the target named is Envelope glycoprotein gp160 (Human immunodeficiency virus 1, UniProt Q6QLK5). The experiment in a line: inhibitors of HIV fusion peptide binding, primary screen, biochemical, uHTS, fluorescence dequenching (AID 1986).
Chain of Envelope glycoprotein gp160 (Q6QLK5 whole entry, the tested form may be a part): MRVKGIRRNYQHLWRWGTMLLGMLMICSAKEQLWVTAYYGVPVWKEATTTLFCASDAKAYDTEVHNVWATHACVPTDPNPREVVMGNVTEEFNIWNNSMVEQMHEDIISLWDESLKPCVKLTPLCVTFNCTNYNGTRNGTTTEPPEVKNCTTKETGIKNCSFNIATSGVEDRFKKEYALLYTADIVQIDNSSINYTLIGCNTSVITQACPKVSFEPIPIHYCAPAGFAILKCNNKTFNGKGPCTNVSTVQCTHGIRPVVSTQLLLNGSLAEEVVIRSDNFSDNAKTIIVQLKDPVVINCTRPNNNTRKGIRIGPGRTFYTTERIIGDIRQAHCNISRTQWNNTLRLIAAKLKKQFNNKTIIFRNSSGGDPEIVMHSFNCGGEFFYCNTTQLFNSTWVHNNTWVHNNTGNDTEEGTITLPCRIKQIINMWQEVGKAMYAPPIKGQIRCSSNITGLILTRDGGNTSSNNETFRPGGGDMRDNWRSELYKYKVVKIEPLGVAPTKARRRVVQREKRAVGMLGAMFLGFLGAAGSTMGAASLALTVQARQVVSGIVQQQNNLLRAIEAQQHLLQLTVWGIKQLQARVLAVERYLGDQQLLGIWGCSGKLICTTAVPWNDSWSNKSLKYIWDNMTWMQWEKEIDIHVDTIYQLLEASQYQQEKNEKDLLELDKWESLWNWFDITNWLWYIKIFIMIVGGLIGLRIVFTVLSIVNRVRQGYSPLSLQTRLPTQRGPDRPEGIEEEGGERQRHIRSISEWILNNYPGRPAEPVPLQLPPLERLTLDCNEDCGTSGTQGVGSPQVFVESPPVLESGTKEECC
Regarding `COc1cccc(NS(=O)(=O)c2ccc3c(c2)C2C=CCC2C(c2ccc(C(=O)O)cc2)N3)c1` (stereo not drawn), the 50% inhibitory concentration (IC50) (in general, the point on the concentration scale where inhibition reaches its midpoint) is 11.9 µM (active). The result for `CCS(=O)(=O)C1=NN2C(=N)/C(=C\c3ccc(OCCOc4cccc(OC)c4)c(OC)c3)C(=O)N=C2S1` reads 9.24 µM (active). The result for `COc1ccc(-c2nn(-c3ccccc3)cc2/C=C2/SC(=S)N(CCC(=O)O)C2=O)c(C)c1` reads 12.5 µM (active).

Source of the values: ChEMBL document CHEMBL1201862, “PubChem BioAssay data set” (2004).
